Reference: article PMC11271247 (SLAS discovery : advancing life sciences R & D, 2019)

Experiments:
[1] = tested on: HEY/NIH microtissues (HEY-GFP ovarian cancer cells + NIH3T3 fibroblasts); format: cell-based, human; settings: read-out: IC50 ATP; HEY/NIH spheroids, ATP content at treatment day 7
[2] = tested on: SKOV/NIH microtissues (SKOV-3 ovarian cancer cells + NIH3T3 fibroblasts); format: cell-based, human; settings: read-out: IC50 ATP; SKOV/NIH spheroids, ATP content at treatment day 7
[3] = tested on: PANC/NIH microtissues (PANC-1 pancreatic cancer cells + NIH3T3 fibroblasts); format: cell-based, human; settings: read-out: IC50 ATP; PANC/NIH spheroids, ATP content at treatment day 7
[4] = tested on: NIH3T3 fibroblasts within HEY/NIH microtissues; settings: day 3
HEY/NIH3T3 microtissues = assay: Microtissue size over time, HEY/NIH microtissues; format: cell-based, human; settings: HEY/NIH3T3, % maximal response at 20 μM
[5] = tested on: NIH3T3 fibroblasts within SKOV/NIH microtissues
[6] = tested on: NIH3T3 fibroblasts within PANC/NIH microtissues; format: cell-based, mouse; settings: PANC1/NIH, day 3 (acute toxicity)

Work on C=CC(=O)Nc1cc2c(Nc3ccc(F)c(Cl)c3)ncnc2cc1C#CC(C)(C)N1CCN(C)CC1 [AV-412] yielded an IC50 [1] of 1.29 µM, an IC50 [2] of 0.08 µM and an IC50 [3] of 2.44 µM.

With COC(=O)[C@]12CCC(C)(C)C[C@H]1[C@H]1C(=O)C=C3[C@@]4(C)C=C(C#N)C(=O)C(C)(C)[C@@H]4CC[C@@]3(C)[C@]1(C)CC2 [Bardoxolone methyl] the IC50 [3] was 1.33 µM.

In the case of CC(C)C[C@H](NC(=O)[C@H](CCc1ccccc1)NC(=O)CN1CCOCC1)C(=O)N[C@@H](Cc1ccccc1)C(=O)N[C@@H](CC(C)C)C(=O)[C@@]1(C)CO1 [Carfilzomib], the “therapeutic window, ratio of adverse to therapeutic effect” value [4] is reported as 578 fold.

In the case of O=C1C(Cl)=C(NCCN2CCOCC2)C(=O)c2ncccc21 [DA-3003-1], the IC50 [1] is reported as 7.36 µM.

With Cc1nc(Nc2ncc(C(=O)Nc3c(C)cccc3Cl)s2)cc(N2CCN(CCO)CC2)n1 [Dasatinib] the “effect on tumor size early in the treatment” value (shortened to “effect on tumor size early”) (HEY/NIH3T3 microtissues) was “reduce tumor size”.

For CNC(=O)[C@H](Cc1c[nH]c2ccccc12)NC(=O)[C@@H](CC(=O)NO)CC(C)C [GM-6001], the IC50 [2] was 3.86 µM and the IC50 [3] was 9.61 µM.

Compound CC1=C(C(=O)Nc2cc3cn[nH]c3cc2F)C(c2ccc(Cl)cc2F)N=C(c2ccnc(Cl)c2)N1 (centres unmarked) [GSK-25] has an IC50 [1] of 6.1 µM, an IC50 [2] of 4.83 µM and an IC50 [3] of 9.38 µM.

Compound CN(C)CCCN=c1c2ccccc2n(C)c2[nH]c(=O)n(C)c(=O)c12 [HLI-373989] has an IC50 [1] of 3.75 µM.

Work on CSc1cccc(Nc2ncc3cc(-c4c(Cl)cccc4Cl)c(=O)n(C)c3n2)c1 [PD-173955] yielded an IC50 [1] of 0.479 µM.

Cc1ccc(/C=N/NC(=O)c2ccccc2Oc2ccccc2)o1 [PNU-74654] showed an IC50 [2] of 2.83 µM.

For C/C=C1\NC(=O)[C@H]2CSSCC/C=C/[C@H](CC(=O)N[C@H](C(C)C)C(=O)N2)OC(=O)[C@H](C(C)C)NC1=O [Romidepsin], the “viability of the stromal cells” value [5] was “significantly lowered the viability of the stromal cells”.

With O=C(O)C1CCCN(CCC=C(c2ccccc2)c2ccccc2)C1 (centres unmarked) [SK&F-89976A] the IC50 [1] was 15.3 µM.

Cc1ccc(-c2ncn(-c3ccc(Nc4nccc(-c5cccc(N6CCOCC6)c5)n4)cc3)n2)cn1 [SR-3306] gave an IC50 [1] of 0.058 µM, an IC50 [2] of 0.013 µM and an IC50 [3] of 0.022 µM.

In the case of Cn1c(=O)c(F)c(Nc2ccc(I)cc2F)c2c(=O)n(C[C@@H](O)CO)cnc21 [TAK-733], the “effect on tumor size early” value (HEY/NIH3T3 microtissues) is reported as “reduce tumor size”.

Nc1ccc(-c2ccc3ncc4ccc(=O)n(-c5cccc(C(F)(F)F)c5)c4c3c2)cn1 [Torin-2] was tested, and the IC50 [1] was 0.027 µM, the “therapeutic window, ratio of adverse to therapeutic effect” value [6] was 5,524 fold and the IC50 [2] was 0.002 µM. For the same compound, the IC50 [3] was 0.001 µM.

c1cncc(CN2CCC(n3ncc4c(N5CCOCC5)nc(-c5ccc6[nH]ccc6c5)nc43)CC2)c1 [WAY-600] gave an IC50 [1] of 1.68 µM, an IC50 [2] of 0.507 µM and an IC50 [3] of 7.38 µM. For the same compound, the “effect on tumor size early” value (HEY/NIH3T3 microtissues) was “reduce tumor size”.
